Results from article PMC6053601, “The role of the jaw subdomain of peptidoglycan glycosyltransferases for lipid II polymerization” (The Cell Surface, 2018).

What was measured:
[1] = target: T1, Staphylococcus aureus monofunctional glycosyltransferase (SaMGT) (Staphylococcus aureus, UniProt Q7A0I6); experiment: ITC (VP-ITC, […] °C, sequential binding site model)
T1 construct: gene mgt; wild-type full-length SaMGT (residues Q28-R269)

[2] = target: T2, Staphylococcus aureus monofunctional glycosyltransferase (SaMGT) (Staphylococcus aureus, UniProt Q7A0I6, E100Q); experiment: X-ray crystal structure, […] Å (re-refinement of 3HZS, polder omit maps); format: binding
T2 construct: gene mgt

## C=C(C/C=C(\C)CCC=C(C)C)CCC(C)(C)/C=C/CC/C(C)=C\CO[C@H](COP(=O)(O)O[C@H]1O[C@H](C(N)=O)[C@@](C)(O)[C@H](OC(N)=O)[C@H]1O[C@@H]1O[C@H](CO[C@@H]2O[C@H](CO)[C@@H](O)[C@H](O)[C@H]2O)[C@@H](O[C@@H]2O[C@H](C)[C@@H](O[C@@H]3O[C@H](C(=O)NC4=C(O)CCC4=O)[C@H](O)[C@H](O)[C@H]3O)[C@H](O)[C@H]2NC(C)=O)[C@H](O)[C@H]1NC(C)=O)C(=O)O [MoeA, moenomycin A]
[1]
  Kd: 540 nM
[2]
  X-ray crystal structure, 2.1 Å (re-refinement of 3HZS, polder omit maps): Overall view of the re-refined structure of SaMGT E100Q mutant with bound MoeA (PDB ID code 6FTB).
